The values below come from ChEMBL document CHEMBL1201862, “PubChem BioAssay data set” (2004).

For orientation: IC50 means the point on the concentration scale where inhibition reaches its midpoint. In general, EC50 refers to the concentration giving half of the maximal effect.

Calls of active or inactive are those of the source.

The nature of assay [1]: A Cell Based Secondary Assay To Explore Cytotoxicity of Compounds that Sensitize Mycobacterium Tuberculosis to Beta-Lactam Antibiotics. The class given is functional.
Assay [2] in a line: P. falciparum ATP4 D1247Y mutant growth inhibitors, dose response, NITD609-resistant line, SYBR Green, dry powder (AID 1159571).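 Also: parasites synchronized at ring stage by sorbitol before testing.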 The class given is functional, cell-based.
Assay [3] in a line: P. falciparum Dd2 growth inhibitors, dose response, SYBR Green, cherry-picked samples (AID 1159567). The class given is functional, cell-based.
Assay [4] in a line: P. falciparum 3D7-ScDHODH growth inhibitors, dose response, SYBR Green, dry powder samples (AID 1159570).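 Also: parasite growth measured after 72 hours of compound exposure.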 The class given is functional, cell-based.
The nature of assay [5]: HepG2 cell cytotoxicity, dose response, cytotoxicity control, plate reader, dry powder samples (AID 1159569).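 Also: inhibitor potency with signal falling toward the positive control level.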 Type of assay: functional, cell-based.
Assay [6] can be described thus: HepG2 cell cytotoxicity, dose response, cytotoxicity control, cherry-picked samples (AID 1159577). The class given is functional, cell-based.
A short description of assay [7]: P. falciparum Dd2 growth inhibitors, dose response, SYBR Green, dry powder samples (AID 1159566).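 Also: potency for growth inhibition with lower SYBR green DNA signal.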 The class given is functional, cell-based.
The target in assay [8] is DNA dC->dU-editing enzyme APOBEC-3A (Homo sapiens, UniProt P31941). Put plainly: Dose Response confirmation of small molecule APOBEC3A DNA Deaminase Inhibitors via a fluorescence-based single-stranded DNA deaminase assay. [Related pubchem assays (depositor defined):AID493011, AID493024]. The class given is functional.
DNA dC->dU-editing enzyme APOBEC-3A, sequence (P31941 whole entry): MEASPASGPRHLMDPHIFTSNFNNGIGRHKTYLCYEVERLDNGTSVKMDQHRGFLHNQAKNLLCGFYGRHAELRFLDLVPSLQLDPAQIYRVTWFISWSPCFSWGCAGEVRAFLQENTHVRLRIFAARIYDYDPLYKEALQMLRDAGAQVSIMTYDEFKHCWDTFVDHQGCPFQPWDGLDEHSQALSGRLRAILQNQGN
For assay [9], the target named is DNA dC->dU-editing enzyme APOBEC-3G (Homo sapiens, UniProt Q9HC16). The class given is functional.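 Also: Dose-response counterscreen measuring inhibition of APOBEC3G DNA deaminase activity, run while confirming APOBEC3A inhibitors.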
DNA dC->dU-editing enzyme APOBEC-3G, sequence (Q9HC16 whole entry): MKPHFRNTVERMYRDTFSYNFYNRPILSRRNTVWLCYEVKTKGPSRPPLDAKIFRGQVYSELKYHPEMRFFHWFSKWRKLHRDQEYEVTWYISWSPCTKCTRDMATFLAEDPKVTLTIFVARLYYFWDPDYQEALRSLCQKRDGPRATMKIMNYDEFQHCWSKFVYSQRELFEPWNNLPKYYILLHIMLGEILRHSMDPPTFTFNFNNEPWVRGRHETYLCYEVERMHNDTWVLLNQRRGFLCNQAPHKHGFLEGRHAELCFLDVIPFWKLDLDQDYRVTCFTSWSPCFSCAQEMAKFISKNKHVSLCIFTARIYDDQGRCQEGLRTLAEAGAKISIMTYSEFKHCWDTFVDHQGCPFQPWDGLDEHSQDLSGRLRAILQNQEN
Assay [10] has as its target T1, Caspase-6 (Homo sapiens, UniProt P55212).
T1 sequence (P55212 whole entry): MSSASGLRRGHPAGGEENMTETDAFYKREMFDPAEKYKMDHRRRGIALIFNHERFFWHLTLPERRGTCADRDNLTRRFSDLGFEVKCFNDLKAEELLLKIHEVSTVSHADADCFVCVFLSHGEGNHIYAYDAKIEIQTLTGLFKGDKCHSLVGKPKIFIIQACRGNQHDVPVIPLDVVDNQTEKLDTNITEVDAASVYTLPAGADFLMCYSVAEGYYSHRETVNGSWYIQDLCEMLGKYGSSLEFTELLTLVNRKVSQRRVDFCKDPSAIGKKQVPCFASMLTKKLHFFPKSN
In words: human caspase-6 inhibitors, dose response, biochemical, VEID-R110 fluorescence, cherry-pick (AID 720632).

For assay [11], the target named is T2, Carboxy-terminal domain RNA polymerase II polypeptide A small phosphatase 1 (Homo sapiens, UniProt Q9GZU7).
T2 sequence (Q9GZU7 whole entry): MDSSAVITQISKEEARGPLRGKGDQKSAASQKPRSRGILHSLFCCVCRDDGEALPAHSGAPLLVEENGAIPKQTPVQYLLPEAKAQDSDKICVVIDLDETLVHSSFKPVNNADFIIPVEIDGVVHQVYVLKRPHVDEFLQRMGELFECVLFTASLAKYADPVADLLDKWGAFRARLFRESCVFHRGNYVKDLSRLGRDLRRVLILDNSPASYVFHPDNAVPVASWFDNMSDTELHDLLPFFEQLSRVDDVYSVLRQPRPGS
Put plainly: inhibitors of CTDSP1, concentration-response testing, biochemical assay, absorbance-based, actives from ultra-high-throughput screening (AID 540297). Type of assay: functional.

Assay [12] addresses T3, Alkaline phosphatase, tissue-nonspecific isozyme (Homo sapiens, UniProt P05186).
T3 sequence (P05186 whole entry): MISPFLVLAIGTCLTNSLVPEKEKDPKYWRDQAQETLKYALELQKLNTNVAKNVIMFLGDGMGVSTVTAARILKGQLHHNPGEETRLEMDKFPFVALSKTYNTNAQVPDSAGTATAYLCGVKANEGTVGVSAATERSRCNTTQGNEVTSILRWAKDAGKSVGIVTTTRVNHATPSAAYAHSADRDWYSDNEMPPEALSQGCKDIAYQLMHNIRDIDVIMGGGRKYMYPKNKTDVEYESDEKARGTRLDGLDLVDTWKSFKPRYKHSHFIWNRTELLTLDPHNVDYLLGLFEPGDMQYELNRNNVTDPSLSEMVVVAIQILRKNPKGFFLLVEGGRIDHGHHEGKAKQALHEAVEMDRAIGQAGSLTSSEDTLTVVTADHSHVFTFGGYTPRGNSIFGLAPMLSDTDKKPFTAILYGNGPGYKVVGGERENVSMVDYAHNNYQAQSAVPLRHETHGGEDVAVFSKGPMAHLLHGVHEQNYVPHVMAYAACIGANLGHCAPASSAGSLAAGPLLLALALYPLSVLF

A short description of assay [13]: inhibitors of PGC1a acetylation in cells, dose response, cell-based, cherry-picked samples (AID 720514).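 Also: potency may reflect raised or lowered acetylation signal.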 The class given is functional.
The target of assay [14] is T4, NADPH oxidase 1 (Homo sapiens, UniProt Q9Y5S8).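 Also: Cell-based assay with luminescence read-out, IC50 derived from inhibitor dose-response curves; intracellular ROS from endogenous NOX1 in intact HT29 colon cancer cells; potency of inhibitors that lower the ROS luminescence signal.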
T4 sequence (Q9Y5S8 whole entry): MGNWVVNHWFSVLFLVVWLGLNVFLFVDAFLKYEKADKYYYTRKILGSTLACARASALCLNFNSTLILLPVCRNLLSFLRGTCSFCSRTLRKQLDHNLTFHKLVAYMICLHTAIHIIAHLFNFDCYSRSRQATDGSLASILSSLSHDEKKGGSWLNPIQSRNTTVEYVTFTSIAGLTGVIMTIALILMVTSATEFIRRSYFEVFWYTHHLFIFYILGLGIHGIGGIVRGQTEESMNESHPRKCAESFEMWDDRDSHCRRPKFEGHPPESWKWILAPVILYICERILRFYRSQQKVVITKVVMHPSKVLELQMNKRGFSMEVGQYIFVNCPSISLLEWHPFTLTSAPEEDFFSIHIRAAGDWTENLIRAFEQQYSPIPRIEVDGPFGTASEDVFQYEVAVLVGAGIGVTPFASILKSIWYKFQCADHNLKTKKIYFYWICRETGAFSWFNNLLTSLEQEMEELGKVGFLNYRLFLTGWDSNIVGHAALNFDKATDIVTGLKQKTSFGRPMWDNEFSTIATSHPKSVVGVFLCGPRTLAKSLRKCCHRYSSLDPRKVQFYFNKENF
Type of assay: functional, cell-based.

Assay [15] can be described thus: NIH:OVCAR-3 ovarian cancer cell cytotoxicity, dose response, PAX8 inhibitor project, plate reader, dry powder samples (AID 743044). Type of assay: functional, cell-based.
The nature of assay [16]: cytotoxicity in OVCAR8 ovarian cancer cells, dose response, PAX8 project, cell-based, plate reader, dry powder samples (AID 743197). The class given is functional. The conditions noted are these: OVCAR-8.
In assay [17] the target is Paired box protein Pax-8 (Homo sapiens, UniProt Q06710). Put plainly: inhibitors of PAX8-driven TPO luciferase reporter, dose response, RMG-I cells, cherry-pick (AID 687027).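 Also: luciferase reporter driven by Pax8 target thyroperoxidase promoter measured by SteadyGlo luminescence.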 The class given is functional, cell-based.
Paired box protein Pax-8, sequence (Q06710 whole entry): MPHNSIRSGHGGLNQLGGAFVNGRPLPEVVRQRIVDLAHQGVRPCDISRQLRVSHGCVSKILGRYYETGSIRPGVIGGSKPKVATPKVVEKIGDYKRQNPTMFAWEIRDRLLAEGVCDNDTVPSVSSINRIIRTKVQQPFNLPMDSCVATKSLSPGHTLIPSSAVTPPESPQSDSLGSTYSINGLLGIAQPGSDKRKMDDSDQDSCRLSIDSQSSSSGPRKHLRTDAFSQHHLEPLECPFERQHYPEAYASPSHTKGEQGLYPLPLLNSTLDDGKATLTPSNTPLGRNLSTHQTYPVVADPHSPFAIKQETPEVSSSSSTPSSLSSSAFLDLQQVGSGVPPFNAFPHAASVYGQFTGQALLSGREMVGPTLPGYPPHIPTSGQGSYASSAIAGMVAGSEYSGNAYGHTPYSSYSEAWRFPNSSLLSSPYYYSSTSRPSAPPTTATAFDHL
Assay [18] addresses Ion channel NompC (Danio rerio, UniProt Q7T1G6). In words: Fluorescence counterscreen assay for TRPML3 agonists: dose response cell-based high-throughput screening assay to identify agonists of the transient receptor potential channel N1 (TRPN1). [Related pubchem assays: 1526, 1424, 1448 ]. The class given is functional. For orientation: The purpose of a counterscreen is to sort out artefacts and off-target activity.

Assay [19] is described as follows: control 3'UTR Renilla luciferase suppression, dose response, counter-screen for Shn3 inhibitor project, cell-based, Clone20-Shn3RL, cherry-picked (AID 624133). The class given is functional.
Assay [20] concerns the target T5, Mucolipin-3 (Homo sapiens, UniProt Q8TDD5).
T5 sequence (Q8TDD5 whole entry): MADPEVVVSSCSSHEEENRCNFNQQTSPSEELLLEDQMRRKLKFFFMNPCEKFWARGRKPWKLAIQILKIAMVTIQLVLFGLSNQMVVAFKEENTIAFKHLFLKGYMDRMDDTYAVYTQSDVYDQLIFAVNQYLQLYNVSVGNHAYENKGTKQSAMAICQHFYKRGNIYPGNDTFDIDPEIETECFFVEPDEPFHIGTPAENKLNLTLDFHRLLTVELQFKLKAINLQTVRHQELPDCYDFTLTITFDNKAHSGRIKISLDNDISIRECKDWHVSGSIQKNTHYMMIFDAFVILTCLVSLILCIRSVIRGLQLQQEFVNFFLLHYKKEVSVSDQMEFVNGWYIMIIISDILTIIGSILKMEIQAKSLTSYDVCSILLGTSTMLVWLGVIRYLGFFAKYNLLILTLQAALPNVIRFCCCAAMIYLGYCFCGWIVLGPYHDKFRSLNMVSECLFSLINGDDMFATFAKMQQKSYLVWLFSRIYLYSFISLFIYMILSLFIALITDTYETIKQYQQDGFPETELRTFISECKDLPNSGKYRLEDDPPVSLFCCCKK
In words: Dose response cell-based high-throughput screening assay for agonists of the transient receptor potential channel ML3 (TRPML3). [Related pubchem assays: 1526, 1424, 1448 ]. The class given is functional.

A short description of assay [21]: HepG2 cell cytotoxicity, dose response, cytotoxicity control for Shn3 inhibitor project, CellTiter-Glo, cherry-picked (AID 624134). Type of assay: functional, cell-based. (In ATP-based viability assays light output follows the ATP content of the culture.)
Assay [22] is described as follows: cells. Type of assay: functional.
Assay [23] is described as follows: microbe, parasite or virus in culture. Type of assay: functional. As to conditions: Mycobacterium tuberculosis.
The target of assay [24] is Cytochrome P450 2C19 (Homo sapiens, UniProt P33261). In words: qHTS Assay for Inhibitors and Substrates of Cytochrome P450 2C19. [Related pubchem assays: 410 ]. The class given is ADME. The conditions noted are these: read-out: Potency. Background: Quantitative high-throughput screening tests each substance at several concentrations.
Cytochrome P450 2C19, sequence (P33261 whole entry): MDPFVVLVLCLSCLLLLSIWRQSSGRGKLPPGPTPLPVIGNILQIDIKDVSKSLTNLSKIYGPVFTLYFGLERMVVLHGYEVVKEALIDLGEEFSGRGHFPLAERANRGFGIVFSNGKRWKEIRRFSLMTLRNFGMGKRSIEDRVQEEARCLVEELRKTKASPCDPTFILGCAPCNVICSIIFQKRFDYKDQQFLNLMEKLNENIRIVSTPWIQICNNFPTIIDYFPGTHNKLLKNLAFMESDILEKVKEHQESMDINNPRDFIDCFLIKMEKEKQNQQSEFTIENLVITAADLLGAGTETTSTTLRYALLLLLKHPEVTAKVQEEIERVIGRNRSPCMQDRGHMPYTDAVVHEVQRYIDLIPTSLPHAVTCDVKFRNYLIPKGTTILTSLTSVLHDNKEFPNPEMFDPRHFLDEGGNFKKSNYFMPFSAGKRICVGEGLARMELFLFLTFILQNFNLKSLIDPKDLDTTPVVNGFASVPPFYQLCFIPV

Ion channel NompC, sequence (Q7T1G6 whole entry): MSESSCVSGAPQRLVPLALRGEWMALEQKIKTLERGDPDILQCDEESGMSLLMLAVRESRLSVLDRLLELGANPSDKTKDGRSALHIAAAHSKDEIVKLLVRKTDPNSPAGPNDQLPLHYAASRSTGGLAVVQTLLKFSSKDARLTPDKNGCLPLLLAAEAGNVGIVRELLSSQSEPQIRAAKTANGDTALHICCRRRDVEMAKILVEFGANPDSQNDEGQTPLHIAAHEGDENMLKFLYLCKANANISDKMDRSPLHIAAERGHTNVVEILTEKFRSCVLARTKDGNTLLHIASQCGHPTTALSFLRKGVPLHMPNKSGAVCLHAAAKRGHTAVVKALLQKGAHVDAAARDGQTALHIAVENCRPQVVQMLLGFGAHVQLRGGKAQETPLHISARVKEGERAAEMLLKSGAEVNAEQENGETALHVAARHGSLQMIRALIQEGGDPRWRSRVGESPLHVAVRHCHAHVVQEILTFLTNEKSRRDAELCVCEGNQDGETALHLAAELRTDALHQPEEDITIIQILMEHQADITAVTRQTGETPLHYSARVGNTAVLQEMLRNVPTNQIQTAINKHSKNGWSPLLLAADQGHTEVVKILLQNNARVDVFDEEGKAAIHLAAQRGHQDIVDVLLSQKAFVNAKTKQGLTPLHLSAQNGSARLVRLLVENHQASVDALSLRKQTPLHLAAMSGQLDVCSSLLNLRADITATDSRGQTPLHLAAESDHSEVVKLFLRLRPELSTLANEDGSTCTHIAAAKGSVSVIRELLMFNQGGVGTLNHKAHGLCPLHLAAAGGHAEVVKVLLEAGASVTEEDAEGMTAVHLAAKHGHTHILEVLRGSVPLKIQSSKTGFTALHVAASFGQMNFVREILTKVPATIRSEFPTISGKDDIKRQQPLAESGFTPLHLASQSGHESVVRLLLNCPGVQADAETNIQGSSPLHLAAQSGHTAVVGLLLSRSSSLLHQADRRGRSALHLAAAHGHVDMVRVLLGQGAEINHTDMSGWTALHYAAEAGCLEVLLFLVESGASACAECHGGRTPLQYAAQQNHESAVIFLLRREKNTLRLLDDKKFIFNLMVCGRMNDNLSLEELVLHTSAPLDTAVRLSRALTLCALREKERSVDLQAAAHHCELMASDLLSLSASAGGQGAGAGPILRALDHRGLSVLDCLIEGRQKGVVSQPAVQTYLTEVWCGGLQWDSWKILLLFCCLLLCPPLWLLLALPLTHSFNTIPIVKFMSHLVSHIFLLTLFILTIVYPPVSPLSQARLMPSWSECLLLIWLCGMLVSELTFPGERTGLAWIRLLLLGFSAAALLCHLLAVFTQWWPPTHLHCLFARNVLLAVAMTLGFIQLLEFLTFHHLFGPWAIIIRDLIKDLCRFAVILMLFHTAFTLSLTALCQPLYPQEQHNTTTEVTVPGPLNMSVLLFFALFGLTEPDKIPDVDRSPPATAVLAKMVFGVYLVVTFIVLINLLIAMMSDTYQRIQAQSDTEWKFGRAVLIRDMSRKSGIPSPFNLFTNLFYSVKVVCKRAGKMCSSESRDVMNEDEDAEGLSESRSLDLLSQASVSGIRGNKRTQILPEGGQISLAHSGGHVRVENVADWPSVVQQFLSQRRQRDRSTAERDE

For `CSc1ncc(Cl)c(C(=O)Nc2cccc3ccccc23)n1`, the CC50 in assay [1] was > 40 µM (active).

Regarding `C[C@@H]1CN([C@@H](C)CO)C(=O)c2cccc(NC(=O)c3ccc(-c4nccs4)cc3)c2O[C@@H]1CN(C)C(=O)Nc1cccc2ccccc12`, the AC50 in [2] was 0.733 µM (active); in [3], 2.9 µM (active); in assay [4], 0.956 µM (active); in assay [5], 53.3 µM (active); in assay [6] it was > 39 µM (inactive); in assay [7], 0.334 µM (active).

As to `O=P(c1ccccc1)(c1ccccc1)c1cc(S(=O)(=O)O)ccc1O`, the half-maximal inhibitory concentration (IC50) in assay [8] was 14.3 µM (active); in [9], 45 µM (active); in assay [11], 9.24 µM (active). The AC50 in [10] is 1.78 µM (active).

`Nc1c(Cl)cc(-c2csc(N3CCCC3c3nc4cc(Cl)c(N5CCCCC5)cc4n3CCCO)n2)cc1Cl` (centres undefined): in [1], the CC50 was > 40 µM (active).

As for `CCOC(=O)c1c(NC(=O)COc2ncnc3ccccc23)sc(C)c1C`, the EC50 in [12] is > 100 µM (not active).

For the compound `CCN(CC(=O)NCc1ccc(Cl)cc1)C(=O)CSCC(=O)Nc1ccc(C)cc1`, the AC50 in assay [13] is 5.23 µM (active).

Regarding `C/C=C/c1ccc([C@H]2[C@H](CO)N(c3nc(CC)cs3)[C@H]2CNC(C)C)cc1`, the figures for the AC50 in assay [3] and in assay [6] were 0.829 µM (active) and 20 µM (active), respectively.

As for `CSc1ccc2c(c1)Nc1ccccc1S2`, the IC50 in assay [14] is 0.241 µM (active).

Turning to `COc1ccccc1C#Cc1ccc2c(c1)O[C@@H](CN(C)Cc1cncnc1)[C@H](C)CN([C@H](C)CO)S2(=O)=O`, the AC50 is 32.6 µM (active) in assay [15], 29 µM (active) in assay [16] and 2.16 µM (active) in [17].

Regarding `CC(=O)N1CCN(S(=O)(=O)c2cccc(C(=O)Nc3ccc4c(c3)OCO4)c2)CC1`, the AC50 in assay [13] was 25.1 µM (active).

Regarding `COc1ccc(-c2nc3ccc(C)cn3c2NCc2ccc3c(c2)OCO3)cc1`, the 50% effective concentration (EC50) in assay [12] was > 100 µM (not active).

For the compound `Oc1ccc(-c2nc(-c3ccccc3)c(-c3ccccc3)[nH]2)cc1`, in [14], the half-inhibitory concentration (IC50) is > 17 µM (not active).

As to `CCOC(=O)C1CCN(C(=O)C(C)N(c2ccc(Oc3ccccc3)cc2)S(C)(=O)=O)CC1` (centres undefined), the EC50 is > 29.9 µM (not active) in [18] and 6.8 µM (active) in assay [20]. The AC50 was 9.34 µM (active) in assay [19] and > 70 µM (inactive) in [21].

`CCCCN1C(=O)C2(NNc3ccccc3O2)c2ccccc21` (centres undefined): the half-maximal inhibitory concentration (IC50) in assay [22] is 36.5 µM (active). For the same compound, the 50% effective concentration (EC50) in assay [12] is < 0.195 µM (not active). In addition, the CC50 in [23] is > 40 µM (active).

As for `COC(=O)NC(c1ccccc1)C(C#N)C(=O)OC` (centres undefined), in assay [24], the AC50 was 3.16 µM (inconclusive).

In the case of `C=C(NNc1c(Cl)c(Cl)nc(C(=O)O)c1Cl)c1ccc(O)cc1`, in [14], the IC50 was 4.45 µM (active).

Take `CCNC(=S)N(Cc1cccs1)Cc1cc2cc(OCC)ccc2nc1O`: the EC50 in assay [18] and in assay [20] was > 29.9 µM (not active) throughout.
